{
  "source": "paper PMC9367672",
  "about": "“In vitro differences in toddalolactone metabolism in various species and its effect on cytochrome P450 expression” (Pharmaceutical Biology, 2022)",
  "key": {"other rhCYP isoforms": {"system": "other rhCYP isoforms", "assay": "Reaction phenotyping with the other recombinant human CYP isoforms", "assay_type": "in vitro ADME", "conditions": "other rhCYP isoforms (of thirteen), 15 nM, 37 °C, 60 min", "procedure": "(§1) The CYP reaction system (200 μL) consisted of 0.1 M potassium phosphate buffer (pH 7.4), an NADPH-generating system (1 mM NADPH, 10 mM G-6-P, 1 unit/mL G-6-PD, 4 mM MgCl2), and liver microsomes or recombinant human microsomes (supersomes). Each of the in vitro enzymatic assays using liver microsomes was linear with respect to incubation time and amount of protein. After a pre-incubation at 37 °C for 3 min, the reactions were initiated by adding NADP^+. After incubating for 60 min, the reactions were quenched by adding 200 μL of ice-cold acetonitrile. Samples were centrifuged at 18,000 g for 15 min at 4 °C and 10 μL of supernatant was analyzed using an HPLC system. NADPH or CYP enzyme sources were not used in the control group to ensure that the metabolic reactions were CYP- and NADPH-dependent. All incubation assays were completed in triplicate. The data are presented as mean ± standard deviation (SD).\n(§2) Thirteen cDNA-expressed human CYP isoforms (CYP1A1, CYP1A2, CYP2A6, CYP2B6, CYP2C8, CYP3A4, CYP2C19, CYP3A5, CYP1B1, CYP2C9, CYP2D6, CYP2E1 and CYP4F2) were used to identify the isoform(s) involved in the biotransformation of toddalolactone. Toddalolactone (10 μM) was incubated with each recombinant CYP (15 nM) for 60 min at 37 °C and metabolites were identified by HPLC."}, "[1]": {"assay": "Metabolic stability assessment in mini pig liver microsomes", "assay_type": "in vitro ADME", "conditions": "pH 7.4, PLMs, toddalolactone 20 μM, 0-90 min", "procedure": "as §1, with “NADPH or CYP enzyme sources were not used in the control group to ensure that the metabolic reactions were CYP- and NADPH-dependent. All incubation assays were completed in triplicate. The data are presented as mean ± standard deviation (SD).” left out\nIn the UGT reaction system, liver microsomes were incubated in 200 μL of the reaction system containing 4 mM UDPGA, 5 mM MgCl2, 20 µg/mL alamethicin, and 50 mM Tris-HCl buffer (pH 7.4). […] After centrifugation at 18,000 g for 15 min, 10 μL of the supernatant was analyzed by HPLC.\nToddalolactone (20 μM) was incubated with different liver microsomes, including HLMs, DLMs, PLMs, MLMs, RAMs, RLMs or MIMs in oxidative metabolism and glucuronidation reaction systems. […] The mixtures were centrifuged at 18,000 g for 15 min at 4 °C and then 10 μL of the supernatant was analyzed by HPLC. […]\nThe peak areas of toddalolactone and its metabolites were detected using a HPLC system (Shimadzu, Kyoto, Japan). […]"}, "[2]": {"assay": "Enzyme kinetics of toddalolactone metabolism in dog liver microsomes (oxidative metabolism)", "assay_type": "in vitro ADME, beagle dog", "conditions": "beagle, dog, liver microsomes, pH 7.4; DLMs; P450-catalyzed oxidation; P4 formation; Vmax/Km", "procedure": "as §1\n(§3) The enzyme kinetics of toddalolactone in oxidative metabolism and glucuronidation were determined by incubating liver microsomes (0.2 mg/mL) or CYPs (15 nM) with different concentrations of toddalolactone (1–200 μM). […] The in vitro intrinsic clearance (CLint) was calculated based on the Vmax/Km ratio. Metabolites were quantified using the standard curve for toddalolactone because of the absence of metabolite standards. […]\n(§4) The enzyme kinetics in oxidative metabolism and glucuronidation of toddalolactone were studied, and preliminary experiments were performed to ensure that metabolites were formed in the linear range of both reaction time and microsomal protein concentration. […] Based on the results of toddalolactone metabolism in different species, the kinetic parameter values in RLMs, DLMs, MLMs, HLMs, RAMs, MIMs, PLMs, CYP1A1 and CYP3A5 were calculated using P4, P4, P4, P4, P2, P2, P4, P4 and P4 data in oxidative metabolism, respectively. In the glucuronidation reaction, the kinetic parameter values in RLMs, MLMs, HLMs, RAMs and PLMs were calculated using P5, P6, P6, P6 and P5 data, respectively."}, "DLMs": {"system": "DLMs", "assay": "Enzyme kinetics of toddalolactone metabolism in dog liver microsomes (oxidative metabolism)", "assay_type": "in vitro ADME, beagle dog", "conditions": "P450-catalyzed oxidation, P4 formation", "procedure": "as §1, §3, §4"}, "[3]": {"set-up": "method as in Zhou et al. ([2021])", "conditions": "mouse blood; intravenous administration; ref Zhou et al. ([2021]); cited from earlier work"}, "CYP3A5": {"target": "CYP3A5 (Homo sapiens, UniProt P20815)", "sequence (P20815 whole entry)": "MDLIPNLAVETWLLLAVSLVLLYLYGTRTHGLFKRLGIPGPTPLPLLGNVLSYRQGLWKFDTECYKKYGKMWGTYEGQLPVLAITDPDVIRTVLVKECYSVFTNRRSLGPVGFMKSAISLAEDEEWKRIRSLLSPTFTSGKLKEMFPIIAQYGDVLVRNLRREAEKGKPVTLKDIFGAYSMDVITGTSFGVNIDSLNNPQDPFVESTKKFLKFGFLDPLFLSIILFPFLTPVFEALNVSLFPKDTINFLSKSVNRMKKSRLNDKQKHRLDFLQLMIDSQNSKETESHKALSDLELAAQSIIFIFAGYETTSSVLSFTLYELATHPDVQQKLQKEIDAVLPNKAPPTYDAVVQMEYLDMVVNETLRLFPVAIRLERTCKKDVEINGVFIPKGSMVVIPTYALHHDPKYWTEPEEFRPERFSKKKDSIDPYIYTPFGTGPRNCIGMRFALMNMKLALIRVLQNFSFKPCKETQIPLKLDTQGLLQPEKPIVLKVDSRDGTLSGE", "assay": "Reaction phenotyping with recombinant human CYP3A5", "assay_type": "in vitro ADME", "set-up": "purchased Corning Life Sciences (Corning, MA); host or cells: Saccharomyces cerevisiae", "conditions": "CYP3A5 15 nM, 37 °C, 60 min; P4 main metabolite", "procedure": "as §1, §2"}},
  "note": "Like-named read-outs stand apart in the source and are kept apart here.",
  "data": [
    {"smiles": "COc1cc2oc(=O)ccc2c(OC)c1C[C@@H](O)C(C)(C)O", "note": "[toddalolactone]", "values": [
      {"measurement": "catalysis of toddalolactone metabolism by rhCYP isoform", "setting": "other rhCYP isoforms", "result": "very limited or even no catalytic activity"},
      {"measurement": "half-life at 20 μM", "setting": "[1]; CYP incubation system, read-out: half-life value (T1/2)", "result": "5.12 ± 0.467", "unit": "h"},
      {"measurement": "half-life at 20 μM", "setting": "[1]; UGT incubation system, read-out: T1/2 value", "result": "1.42 ± 0.0717", "unit": "h"},
      {"measurement": "microsomal CLint", "setting": "[2]", "result": 0.19, "unit": "µL/min/mg"},
      {"measurement": "K m", "setting": "DLMs", "result": "148.93 ± 38.37", "unit": "µM"},
      {"measurement": "V max", "setting": "DLMs; toddalolactone 1–200 μM", "result": "29.76 ± 7.27", "unit": "pmol/min/mg protein"},
      {"measurement": "t1/2", "setting": "[3]", "result": 0.8, "unit": "h"},
      {"measurement": "catalysis of toddalolactone metabolism by rhCYP isoform", "setting": "CYP3A5", "result": "predominantly catalyzed"}
    ]}
  ]
}
